We go through one compound from patent US9822101B1, “Pyrazole compounds” (Eli Lilly and Company, priority 2015, dated 2017).

Assay [1] has as its target T1, human MetAP2 (Homo sapiens, UniProt P50579).
T1 construct: Full length MetAP2 (human and mouse) and MetAP1 (human) proteins are generated from Sf9 cells; made in house; host or cells: Sf9 cells
The experiment in a line: Enzymatic activity assay of human MetAP2 (LC/MS product peptide). It counts as biochemical. The settings on record: Mean ± SEM; substrate 150 μM, 40 minutes; read-out: hMetAP2 IC50. The procedure: (§1) Full length MetAP2 (human and mouse) and MetAP1 (human) proteins are generated from Sf9 cells using procedure similar to that described in Biochemistry 2003, 42, 5035-5042. MetAP2 and MetAP1 are purified in the presence of 5 mM MnCl2 and 2 mM CoCl2 respectively, and stored at −78° C. before use.
(§2) Inhibition of the catalytic activity of human and mouse MetAP2 by compounds in the present invention is measured by monitoring the formation of the product peptide (Gly-Lys-Val-Lys-Val-Gly-Val-Asn-Gly) from the substrate peptide (Met-Gly-Lys-Val-Lys-Val-Gly-Val-Asn-Gly) via LC/MS. The reaction is typically conducted by incubating the enzyme, test compound and substrate (150 μM) in a 100 μl assay buffer (50 mM HEPES, 100 mM NaCl, […], 0.17 mM Triton™ X-100 μl at pH 7.5) for 40 minutes. After the reaction is stopped by the addition of 200 μl CH3CN, the levels of product and remaining substrate are quantified with a mass spectrometer. The activity of human MetAP1 is monitored by the formation of the fluorescent product rhodamine-methionine from the substrate methionine-rhodamine-methionine on a spectrophotometer with the excitation light at 460 nm and emission light at 535 nm. The reaction is typically conducted by incubating the enzyme, test compound and substrate (50 μM) in a 100 μl assay buffer (50 mM HEPES, 100 mM NaCl, 0.1% BSA, 0.05% Tween®-20, 50 μM CoCl2) for 60 minutes. […]

The target in assay [2] is T2, human MetAP1 (Homo sapiens, UniProt P53582).
T2 construct: Full length MetAP2 (human and mouse) and MetAP1 (human) proteins are generated from Sf9 cells; made in house; host or cells: Sf9 cells
The experiment in a line: Enzymatic activity assay of human MetAP1 (fluorescence, rhodamine-methionine). The settings on record: substrate 50 μM, 60 minutes; read-out: hMetAP1 IC50. It counts as biochemical. The method, then:
as §1, §2

Assay [3] deals with T3, mouse MetAP2 (Mus musculus, UniProt O08663).
T3 construct: Full length MetAP2 (human and mouse) and MetAP1 (human) proteins are generated from Sf9 cells; made in house; host or cells: Sf9 cells
T3 sequence (O08663 whole entry): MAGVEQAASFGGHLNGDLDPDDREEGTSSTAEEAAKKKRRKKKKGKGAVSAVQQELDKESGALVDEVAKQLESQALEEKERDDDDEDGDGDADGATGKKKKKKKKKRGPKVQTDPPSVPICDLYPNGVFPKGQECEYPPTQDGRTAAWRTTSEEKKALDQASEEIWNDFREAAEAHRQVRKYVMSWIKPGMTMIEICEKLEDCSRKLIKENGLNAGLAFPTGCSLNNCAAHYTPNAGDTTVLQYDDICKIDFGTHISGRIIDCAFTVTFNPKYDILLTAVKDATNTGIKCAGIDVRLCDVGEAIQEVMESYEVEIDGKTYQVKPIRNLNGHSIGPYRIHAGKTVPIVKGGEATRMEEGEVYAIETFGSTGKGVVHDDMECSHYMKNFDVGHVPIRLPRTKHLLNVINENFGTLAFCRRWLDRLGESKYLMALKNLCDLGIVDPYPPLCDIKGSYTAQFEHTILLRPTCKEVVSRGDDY
The experiment in a line: Enzymatic activity assay of mouse MetAP2 (LC/MS product peptide). The assay is classed as biochemical. The settings on record: Mean ± SEM; substrate 150 μM, 40 minutes; read-out: mMetAP2 IC50. The method, then: as §1, §2

The subject of assay [4] is obese DIO mice. The experiment in a line: Therapeutic weight loss effect in high fat diet induced obese (DIO) mice. The assay is classed as in vivo, mouse. The following applies: day 14. The procedure: To determine the therapeutic weight loss effects and improvement of metabolic parameters, the compound from the invention is tested in the high fat diet (HFD) feeding induced obese mouse model (DIO mice). In this model, C57/Bl6J male mouse is fed with the 60% HFD (D12492i, Research Diets) for 16˜28 weeks to establish obesity with body weight reaching around 50 g. The mice will gradually increase the body weight to about 50 g and maintain that weight in this obese state. Test compound (via the vehicle of 0.5% HEC plus 0.25% Tween®-80 at 5 mL/kg) is administered orally to the obese DIO mice once or twice daily throughout the study duration. The dose-dependent weight loss of obese DIO mice for Example 1 of the oral treatment at 20 mg/kg and 60 mg/kg once daily is about 4% and 17% weight loss compared to the vehicle group at day 14, respectively. The data support that the compound of Example 1 is associated with desired weight loss and could offer a therapeutic weight loss effect.

Assay [5] concerns the target T4, Human DPP-4 ((39-766)-His) (Homo sapiens, UniProt P27487).
T4 construct: Human DPP-4 ((39-766)-His); His (C); made in house
Description: Enzymatic activity assay of human DPP-4 (Gly-Pro-AMC fluorescence). The following applies: Mean ± SEM; substrate 10 μM, 30 minutes; read-out: hDPP-4 IC50. The assay is classed as biochemical. The procedure:
(§3) Human DPP-4 ((39-766)-His) and mouse DPP-4 ((29-760)-His) are purified for use in the assay. The final concentration of hDPP-4 and mDPP-4 in the assay is 0.04 nM and 0.22 nM respectively.
(§4) Inhibition of the catalytic activity of human and mouse DPP-4 by the compound in the present invention is monitored by the formation of product fluorescence AMC (7-amido-4-methylcoumarin hydrobromide) from substrate Gly-Pro-AMC (Sigma, G2761) on an Envision plate reader. The reaction is typically conducted by incubating the enzyme, test compound, and substrate (10 μM) in a 75 μl assay buffer (0.01% BSA, 0.1 mM EDTA, […], 0.01% Triton™-X100, 0.1 M NaCl at pH 7.5) for 30 minutes. After the reaction is stopped by the addition of 25 μl ZnSO4 (10 mM), the formation of fluorescent product AMC is measured on an Envision plate reader with the excitation wavelength at 355 nm and emission wavelength at 460 nm. The IC50 value is calculated typically from a 10-point dose titration curve using the 4-parameter logistic equation.

For assay [6], the target named is T5, mouse DPP-4 ((29-760)-His) (Mus musculus, UniProt P28843).
T5 construct: mouse DPP-4 ((29-760)-His); His (C); made in house
T5 sequence (P28843 29-760): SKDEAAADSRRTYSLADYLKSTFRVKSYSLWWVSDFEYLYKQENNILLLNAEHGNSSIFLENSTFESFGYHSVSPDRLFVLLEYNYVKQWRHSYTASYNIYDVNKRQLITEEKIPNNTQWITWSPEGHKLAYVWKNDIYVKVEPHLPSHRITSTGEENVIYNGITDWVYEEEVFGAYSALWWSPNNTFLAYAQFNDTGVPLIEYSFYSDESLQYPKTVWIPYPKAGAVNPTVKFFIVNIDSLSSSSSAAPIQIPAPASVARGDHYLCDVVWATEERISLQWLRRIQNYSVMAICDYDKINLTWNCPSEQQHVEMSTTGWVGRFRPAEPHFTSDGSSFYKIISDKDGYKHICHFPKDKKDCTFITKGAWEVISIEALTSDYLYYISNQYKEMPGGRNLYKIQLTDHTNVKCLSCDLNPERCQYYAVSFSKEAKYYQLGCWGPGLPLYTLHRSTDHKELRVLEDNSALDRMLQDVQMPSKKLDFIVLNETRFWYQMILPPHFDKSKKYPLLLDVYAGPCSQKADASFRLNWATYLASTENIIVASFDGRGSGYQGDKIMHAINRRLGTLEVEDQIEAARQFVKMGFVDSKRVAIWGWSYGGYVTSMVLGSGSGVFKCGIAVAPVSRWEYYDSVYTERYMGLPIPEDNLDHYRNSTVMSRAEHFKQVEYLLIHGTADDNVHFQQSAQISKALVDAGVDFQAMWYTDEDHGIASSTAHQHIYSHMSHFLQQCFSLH
The experiment in a line: Enzymatic activity assay of mouse DPP-4 (Gly-Pro-AMC fluorescence). The settings on record: Mean ± SEM; substrate 10 μM, 30 minutes; read-out: mDPP-4 IC50. The assay is classed as biochemical. The method, then:
as §3, §4

Assay [7] deals with T6, plasma DPP-4 (Mus musculus, UniProt P28843).
T6 construct: Plasma, isolated from the blood samples, is used to determine the plasma DPP-4 enzyme activity; from tissue; host or cells: plasma of C57B/L6 mice dosed with compound
T6 sequence (P28843 37-760 limits assumed): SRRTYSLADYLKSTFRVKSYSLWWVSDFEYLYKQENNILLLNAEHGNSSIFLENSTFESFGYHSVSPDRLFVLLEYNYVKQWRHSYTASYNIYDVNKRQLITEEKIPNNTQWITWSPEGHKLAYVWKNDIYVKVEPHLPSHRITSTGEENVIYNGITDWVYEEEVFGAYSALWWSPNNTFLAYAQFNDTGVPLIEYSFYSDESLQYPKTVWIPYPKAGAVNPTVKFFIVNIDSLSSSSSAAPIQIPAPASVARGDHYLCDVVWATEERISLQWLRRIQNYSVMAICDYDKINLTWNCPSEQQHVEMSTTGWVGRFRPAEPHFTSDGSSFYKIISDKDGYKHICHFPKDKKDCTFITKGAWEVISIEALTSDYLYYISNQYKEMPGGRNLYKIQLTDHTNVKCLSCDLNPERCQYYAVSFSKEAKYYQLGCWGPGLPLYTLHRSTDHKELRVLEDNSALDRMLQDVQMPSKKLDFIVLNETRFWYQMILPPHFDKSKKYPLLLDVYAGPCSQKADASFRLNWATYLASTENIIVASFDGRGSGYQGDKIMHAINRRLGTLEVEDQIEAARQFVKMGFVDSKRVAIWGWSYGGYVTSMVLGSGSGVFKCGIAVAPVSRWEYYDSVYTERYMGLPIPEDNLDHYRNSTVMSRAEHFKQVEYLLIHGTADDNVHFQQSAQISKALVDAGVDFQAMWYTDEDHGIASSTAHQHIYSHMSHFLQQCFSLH
Description: DPP-4 pharmacodynamics assay in mouse (plasma DPP-4 enzyme activity). The following applies: C57B/L6 lean mice, oral gavage, vehicle group = 0%. It counts as in vivo. The method, then: To determine the in vivo DPP-4 inhibition by MetAP2 plus DPP-4 dual inhibitor compounds, C57B/L6 lean mice are administrated with the compound in fed states and then DPP-4 target engagement in plasma is measured. Animals are weighed and randomized by body weight. Each mouse is dosed via oral gavage with vehicle or testing compound formulated with vehicle for up to 3 times. The first dose is administrated at 9˜10 am on day 1. The second dose is administrated at 16:30˜17:30 on day 1. The third dose is administrated at 9˜10 am on day 2. The mice are fasted for 6 hours after the last dose before termination at ˜[…] on day 2. Blood samples are collected at 1 hour after the first dosing and upon termination. EDTA-K2 at final concentration of 5 mM is used as an anticoagulant. Plasma, isolated from the blood samples, is used to determine the plasma DPP-4 enzyme activity. Plasma DPP-4 enzyme activity in the present invention is monitored by the formation rate of fluorescence AMC from substrate Gly-Pro-AMC (Sigma, G2761) via Envision plate reader. […] Fluorescence signal is read immediately after the start of the reaction in kinetic model in Envision plate reader. […] The plasma DPP-4 activity is calculated from reaction velocity. […]

T1 sequence (P50579 whole entry): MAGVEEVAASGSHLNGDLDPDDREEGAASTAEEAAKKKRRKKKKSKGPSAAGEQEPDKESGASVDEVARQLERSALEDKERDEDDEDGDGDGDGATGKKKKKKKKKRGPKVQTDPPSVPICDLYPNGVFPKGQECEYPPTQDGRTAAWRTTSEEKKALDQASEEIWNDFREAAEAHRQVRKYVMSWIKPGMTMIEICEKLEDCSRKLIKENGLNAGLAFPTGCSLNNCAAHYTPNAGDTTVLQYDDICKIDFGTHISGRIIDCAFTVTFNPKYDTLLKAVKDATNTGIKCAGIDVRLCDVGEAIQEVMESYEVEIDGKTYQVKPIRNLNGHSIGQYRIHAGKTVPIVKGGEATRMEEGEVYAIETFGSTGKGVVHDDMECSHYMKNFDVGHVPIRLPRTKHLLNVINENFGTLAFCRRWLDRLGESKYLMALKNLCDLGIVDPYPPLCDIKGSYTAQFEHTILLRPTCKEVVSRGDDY
T4 sequence (P27487 39-766): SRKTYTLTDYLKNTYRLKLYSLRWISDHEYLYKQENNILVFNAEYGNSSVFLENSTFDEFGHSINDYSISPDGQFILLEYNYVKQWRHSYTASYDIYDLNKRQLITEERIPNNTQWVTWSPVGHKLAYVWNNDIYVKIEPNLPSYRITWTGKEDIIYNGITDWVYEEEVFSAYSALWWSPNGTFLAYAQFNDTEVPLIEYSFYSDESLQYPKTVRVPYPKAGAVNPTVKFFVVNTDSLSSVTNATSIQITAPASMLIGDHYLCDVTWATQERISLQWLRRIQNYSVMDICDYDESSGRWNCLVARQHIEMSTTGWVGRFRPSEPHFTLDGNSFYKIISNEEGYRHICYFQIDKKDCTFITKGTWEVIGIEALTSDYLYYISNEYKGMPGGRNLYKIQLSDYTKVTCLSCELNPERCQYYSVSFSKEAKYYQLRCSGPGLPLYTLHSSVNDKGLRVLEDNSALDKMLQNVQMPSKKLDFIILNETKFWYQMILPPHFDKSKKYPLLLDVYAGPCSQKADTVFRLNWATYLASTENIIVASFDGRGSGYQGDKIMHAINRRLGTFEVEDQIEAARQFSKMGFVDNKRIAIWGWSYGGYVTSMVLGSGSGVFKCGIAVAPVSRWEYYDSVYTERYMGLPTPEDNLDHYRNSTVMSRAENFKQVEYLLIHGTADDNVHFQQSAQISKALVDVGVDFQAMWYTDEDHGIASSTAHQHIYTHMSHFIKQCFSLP

The term IC50 denotes the concentration that inhibits the measured activity by half. On to `N[C@H]1CN(c2ncc(Oc3c[nH]nc3C3=CCC(F)(F)CC3)cn2)C[C@@H]1c1cc(F)c(F)cc1F` [Example 1, (3R,4S)-1-[5-[[3-(4,4-Difluorocyclohexen-1-yl)-1H-pyrazol-4-yl]oxy]pyrimidin-2-yl]-4-(2,4,5-trifluorophenyl)pyrrolidin-3-amine], for which the half-maximal inhibitory concentration (IC50) is 9 ± 3 nM in assay [1]; more than 30000 nM in assay [2]; 36 ± 34 nM in assay [3]; 6 ± 2 nM in assay [5]; 26 ± 11 nM in assay [6]. Also, the figures for the “weight loss compared to the vehicle group” value in assay [4] (oral 20 mg/kg once daily) and in assay [4] (oral 60 mg/kg once daily) were “about 4%” and approximately 17%, respectively. Also, the “plasma DPP-4 inhibition” value in assay [7] (1 hour after the first dosing) is reported as 86%; in assay [7] (upon termination (6 hours after the last dose, day 2)), 83%.
